Patent US10800772B2 (Gilead Sciences, Inc., priority 2016, dated 2020)
Like-named read-outs stand apart in the source and are kept apart here.

Assays:
HIV-IIIb IN T174I BT = experiment: Antiviral assay in MT4 cells, HIV-IIIb IN T174I BT virus (from viral breakthrough); assay type: cell-based, HIV-1; conditions: Human immunodeficiency virus 1, IIIB, MT4, 120 h, read-out: T174I BT EC50, MT4 cells, HIV-IIIb IN T174I BT (viral breakthrough), 5 days, CellTiter-Glo
Summary of the method: (§1)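 MT4 cells were pre-infected 3 h at 37 °C with HIV-IIIb (0.004 m.o.i.): wildtype, or IN T174I virus from breakthrough or from dose-escalation passaging. Cells (2000/well) were exposed to 10-point 3-fold compound dilutions in quadruplicate for 5 days at 37 °C. EC50 was the concentration giving 50% decrease in CellTiter-Glo luminescence.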

in vitro = conditions: human, microsomes
HIV-IIIb IN T174I DE = experiment: Antiviral assay in MT4 cells, HIV-IIIb IN T174I DE virus (from dose escalation passaging); assay type: cell-based, HIV-1; conditions: Human immunodeficiency virus 1, IIIB, MT4, 120 h, read-out: T174I DE EC50, MT4 cells, HIV-IIIb IN T174I DE (dose escalation), 5 days, CellTiter-Glo
Summary of the method: as §1

HIV-IIIb (wildtype) = experiment: Antiviral assay in MT4 cells, HIV-IIIb wildtype; assay type: cell-based, HIV-1; conditions: read-out: WT EC50
Summary of the method: as §1

[1] = Hum MS stability (human microsomal stability half-life); conditions: human microsomes
[2] = Human immunodeficiency virus 1, IIIB, MT4, 120 h

| Structure (SMILES) | EC50 (HIV-IIIb IN T174I BT) [nM] | half-life (in vitro) [h] | EC50 (HIV-IIIb IN T174I DE) [nM] | EC50 (HIV-IIIb (wildtype); Human immunodeficiency virus 1, 120 h, MT4 cells, HIV-IIIb wildtype, 5 days, CellTiter-Glo) [nM] | half-life [1] [h] | EC50 (HIV-IIIb (wildtype); [2]) [nM] |
| --- | --- | --- | --- | --- | --- | --- |
| Cc1cc2nc(-c3ccc4c(c3)c(C3CCN(C5CC5)CC3)nn4C)sc2c(-c2ccc(Cl)cc2)c1[C@H](OC(C)(C)C)C(=O)O [Compound 128, (S)-2-(tert-butoxy)-2-(7-(4-chloro-phenyl)-2-(3-(1-cyclopropylpiperidin-4-yl)-1-methyl-1H-indazol-5-yl)-5-methylbenzo[d]thiazol-6-yl) acetic acid] | 292 | 4.03 | 511 | 4 | – | – |
| Cc1cc2nc(-c3ccc4c(n3)c(C3CCN([C@H]5C[C@@H](O)C5)CC3)nn4C)sc2c(-c2ccc(Cl)cc2)c1[C@H](OC(C)(C)C)C(=O)O [Compound 188, (S)-2-(tert-butoxy)-2-(7-(4-chloro-phenyl)-2-(3-(1-((1s,3s)-3-hydroxy-cyclobutyl)piperidin-4-yl)-1-methyl-1H-pyrazolo[4,3-b]pyridin-5-yl)-5-methylbenzo[d]thiazol-6-yl) acetic acid] | 196 | – | 391 | – | 2.53 | 11 |
| Cc1cc2nc(-c3ccc4c(n3)c(N3CCN([C@H]5C[C@@H](O)C5)CC3)nn4C)sc2c(-c2ccc(Cl)cc2)c1[C@H](OC(C)(C)C)C(=O)O [Compound 197, (S)-2-(tert-butoxy)-2-(7-(4-chloro-phenyl)-2-(3-(4-((1s,3s)-3-hydroxy-cyclobutyl)piperazin-1-yl)-1-methyl-1H-pyrazolo[4,3-b]pyridin-5-yl)-5-methylbenzo[d]thiazol-6-yl) acetic acid] | 936 | – | 2680 | – | 2.8 | 18 |
